Results from PubChem BioAssay AID2060497 (Molecular Pharmacology Branch, DTP, NCI, 2025).

Test system: 317291-083-R-J1-PDC complex spheroids, viability
Assay: Anticancer human tumor 317291-083-R-J1-PDC patient-derived soft tissue sarcoma cell line growth inhibition [GQUAD]
Conditions: for IC50: curve of first compound; for viability, T/C: stronger effect = lower value
Excerpt: DNA G-quadruplex Stabilizer Agents in Combinations in Complex Spheroids
A high-throughput screen of multi-cell type tumor spheroids was designed to identify active combinations of DNA G-quadruplex stabilizer agents and targeted small molecules. Complex spheroids include a stromal component modeled by human endothelial cells (HUVEC) and fibroblasts modeled by human mesenchymal stem cells (MSCs). The concentration ranges selected for each drug and investigational agent were based upon clinically achievable concentrations if the clinical Cmax of the agent was known.
Compounds. The drugs and investigational agents: pidnarulex (CX-5461; NSC782164), APTO-253 (NSC789042), BRACO-19 (NSC847499), peposertib (NSC802822), ceralasertib (NSC780249), elimusertib (NSC800525), camonsertib (NSC841442), AZD-1390 (NSC803789), olaparib (NSC753686), talazoparib (NSC767125), ART-558 (NSC835418), sotorasib (NSC818433), MRTX-1133 (NSC836407), SN-38 (NSC673596), topotecan (NSC609699), etoposide (NSC141540), doxorubicin (NSC123127), gemcitabine (NSC613327), 5-fluorouracil (NSC19893), paclitaxel (NSC125973), vemurafenib (NSC761431), panobinostat (NSC761190), R-306465 (JNJ-16241199; NSC773264), adavosertib (NSC754352), TP-3654 (NSC805149), carboplatin (NSC241240), KSQ-4279 (NSC840948), and staurosporine (NSC755774) were obtained from the National Cancer Institute (NCI) Developmental Therapeutics Program Chemical Repository (34). The FDA-approved anticancer drug set is available from the NCI Developmental Therapeutics Program. […] The stock solutions were prepared in dimethyl sulfoxide (DMSO, Sigma-Aldrich, St. Louis, MO, cat. D2650) at 800-fold the tested concentration and stored at -70 degrees C prior to their use. All drugs and investigational agents were tested over a range starting from a high concentration at or near the clinical Cmax and decreasing in half-log increments. If the clinical Cmax for an agent had not been determined, the highest concentration tested was 10 microM.
2.3 Cell Culture. All cells were maintained in an incubator at 37 degrees C and 5% CO2 with 95% humidity. The PDC lines were cultured according to standard operating procedures established by the NCI PDMR. All PDCs were thawed and cultured in Matrigel-coated flasks prepared with a working solution of 1X Ham's F-12 nutrient mix, without supplementation (Invitrogen, cat. 11765054), 100 U/mL penicillin-streptomycin (Invitrogen, cat. 15140122), and 2.5% Matrigel (Corning Inc., cat. 354248) for the first three passages. The 857933-349-R-J2-PDC line was cultured in 6C/Colon 1B media, which includes advanced DMEM/F-12 (Thermo Fisher Scientific, cat. 12634028), 10 mM HEPES (Thermo Fisher Scientific, cat. 15630080), 1X GlutaMAX supplement (Thermo Fisher Scientific, cat. 35050061), 0.1 mg/mL primocin (InvivoGen, cat. ant-pm-2), 10% defined fetal bovine serum, heat inactivated (HyClone Laboratories Inc., cat. SH30070.03HI), 50% L-WRN conditioned media (ATCC, cat. CRL-3276), 1.25 mM N-Acetyl-L-cysteine (Sigma-Aldrich, cat. A9165), 10 mM nicotinamide (Sigma-Aldrich, cat. N0636), 1X B-27 supplement (Thermo Fisher Scientific, cat. 17504044), 1X N-2 supplement (Thermo Fisher Scientific, cat. 17502048), 10 microM Y-27632 dihydrochloride (Tocris Bioscience, cat. 1254), and 50 ng/mL human EGF recombinant protein (Thermo Fisher Scientific, cat. PHG0311). The 485176-168-R4-J1-PDC line was cultured in Panc media, which includes all 6C/Colon 1B media components plus 100 ng/mL human FGF-10 (Thermo Fisher Scientific, cat. 100-26), 500 nM SB-431542 (Selleckchem, cat. S1067), and gastrin (Tocris, cat. 3006).
[…]
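Also: spheroids exposed to compounds for one week before readout.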
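For viability, T/C in this document: percent viability relative to DMSO vehicle wells taken as 100%.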

C=CCn1c(=O)c2cnc(Nc3ccc(N4CCN(C)CC4)cc3)nc2n1-c1cccc(C(C)(C)O)n1 + Cc1[nH]c2ccc(F)cc2c1-c1nc2c3cccnc3c3ncccc3c2[nH]1
IC50 (second compound 0.0316 µM): 119 nM | IC50 (second compound 0.1 µM): 137 nM | IC50 (second compound 0.316 µM): 58 nM | IC50 (second compound 1 µM): 39.5 nM | IC50 (second compound 3.16 µM): < 31.6 nM | IC50 (second compound 10 µM): < 31.6 nM | viability, T/C (second compound 0.0316 µM, first compound 0.0316 µM): 80.5% | viability, T/C (second compound 0.0316 µM, first compound 0.1 µM): 55.3% | viability, T/C (second compound 0.0316 µM, first compound 0.316 µM): 21.7% | viability, T/C (second compound 0.0316 µM, first compound 1 µM): 17.8% | viability, T/C (second compound 0.0316 µM, first compound 3.16 µM): 8.57% | viability, T/C (second compound 0.0316 µM, first compound 10 µM): 9.56% | viability, T/C (second compound 0.1 µM, first compound 0.0316 µM): 87% | viability, T/C (second compound 0.1 µM, first compound 0.1 µM): 59.7% | viability, T/C (second compound 0.1 µM, first compound 0.316 µM): 24.4% | viability, T/C (second compound 0.1 µM, first compound 1 µM): 12.8% | viability, T/C (second compound 0.1 µM, first compound 3.16 µM): 12% | viability, T/C (second compound 0.1 µM, first compound 10 µM): 11.9% | viability, T/C (second compound 0.316 µM, first compound 0.0316 µM): 61.1% | viability, T/C (second compound 0.316 µM, first compound 0.1 µM): 40.1% | viability, T/C (second compound 0.316 µM, first compound 0.316 µM): 17.3% | viability, T/C (second compound 0.316 µM, first compound 1 µM): 11.3% | viability, T/C (second compound 0.316 µM, first compound 3.16 µM): 10.9% | viability, T/C (second compound 0.316 µM, first compound 10 µM): 8.81% | viability, T/C (second compound 1 µM, first compound 0.0316 µM): 56% | viability, T/C (second compound 1 µM, first compound 0.1 µM): 25% | viability, T/C (second compound 1 µM, first compound 0.316 µM): 15.8% | viability, T/C (second compound 1 µM, first compound 1 µM): 7.15% | viability, T/C (second compound 1 µM, first compound 3.16 µM): 8.02% | viability, T/C (second compound 1 µM, first compound 10 µM): 10.3% | viability, T/C (second compound 3.16 µM, first compound 0.0316 µM): 25.2% | viability, T/C (second compound 3.16 µM, first compound 0.1 µM): 12.5% | viability, T/C (second compound 3.16 µM, first compound 0.316 µM): 9.21% | viability, T/C (second compound 3.16 µM, first compound 1 µM): 5.63% | viability, T/C (second compound 3.16 µM, first compound 3.16 µM): 8.76% | viability, T/C (second compound 3.16 µM, first compound 10 µM): 6.68% | viability, T/C (second compound 10 µM, first compound 0.0316 µM): 33.5% | viability, T/C (second compound 10 µM, first compound 0.1 µM): 21.5% | viability, T/C (second compound 10 µM, first compound 0.316 µM): 13.4% | viability, T/C (second compound 10 µM, first compound 1 µM): 9.85% | viability, T/C (second compound 10 µM, first compound 3.16 µM): 8.36% | viability, T/C (second compound 10 µM, first compound 10 µM): 9.58%
